Assay results reported in patent publication US7629150B2, “Transformed cell harboring DNA or RNA encoding sugar chain synthesizing agent having β1,3-N-acetylglucosaminyltransferase activity” (Kyowa Hakko Kirin Co., Ltd., priority 2000, dated 2009).
One block for each molecule: values may come before it.

Legend:
[1] = tested on: pCXN2-G6-transfected HCT-15 cell; assay: Sugar chain synthesis inhibitors: FACS analysis with OSK28 of poly-N-acetyllactosamine sugar chains; assay type: cell-based, human; conditions: cultured for 5 days
Procedure: The HCT-15 cells transfected with pCXN2-G6 or pCXN2 prepared in the above (2) (each 5×10^6 cells) were washed by using 3 ml of a phosphate buffer PBS (8 g/l NaCl, 0.2 g/l KCl, 1.15 g/l Na2HPO4 (anhydrous) and 0.2 g/l KH2PO4).
The cells (about 1×10^6 cells) described above were put into a microtube (1.5 ml, manufactured by Eppendorf) and the cells were collected by centrifugation (550×g, 7 minutes).
The cells were washed with 0.9 ml of 0.1% sodium azide-containing PBS (A-PBS: 8 g/l NaCl, 0.2 g/l KCl, 1.15 g/l Na2HPO4 (anhydrous), 0.2 g/l KH2PO4 and 0.1% sodium azide), and then the washed cells were suspended in 100 μl of an antibody (OSK28) capable of recognizing a poly-N-acetyllactosamine sugar chain diluted with A-PBS to give a concentration of 10 μg/ml (20 times dilution of the following purified antibody) and allowed to react at 4° C. for 30 minutes in the dark.
After the reaction, the cells are washed twice with 3 ml of A-PBS, suspended in 100 μl of an FITC-labeled anti-human IgM antibody [manufactured by Medical & Biological Laboratories (MBL)] diluted to 10 μg/ml, and then allowed to react at 4° C. for 1 hour. After the reaction, the cells were washed twice with 3 ml of A-PBS, suspended in 200 μl of PBS containing 0.5% p-formaldehyde and then immobilized. The cells were analyzed by using FACS (Epics Elite Flow Cytometer). […]

[2] = molecular target: T1, G6 polypeptide (Homo sapiens, UniProt Q9BYG0); assay: β1,3-N-acetylglucosaminyltransferase activity of cell extract of Namalwa cells transfected with pAMo-G6, glycolipid substrates; assay type: biochemical; conditions: for conversion efficiency into the product: 250 μmol/l glycolipid, 37° C., 16 hours
T1 construct: In order to obtain a DNA encoding the full-length G6 polypeptide, PCR was carried out; expressed in transfected cells; Triton X-100 cell extract
T1 sequence (Q9BYG0 1-378): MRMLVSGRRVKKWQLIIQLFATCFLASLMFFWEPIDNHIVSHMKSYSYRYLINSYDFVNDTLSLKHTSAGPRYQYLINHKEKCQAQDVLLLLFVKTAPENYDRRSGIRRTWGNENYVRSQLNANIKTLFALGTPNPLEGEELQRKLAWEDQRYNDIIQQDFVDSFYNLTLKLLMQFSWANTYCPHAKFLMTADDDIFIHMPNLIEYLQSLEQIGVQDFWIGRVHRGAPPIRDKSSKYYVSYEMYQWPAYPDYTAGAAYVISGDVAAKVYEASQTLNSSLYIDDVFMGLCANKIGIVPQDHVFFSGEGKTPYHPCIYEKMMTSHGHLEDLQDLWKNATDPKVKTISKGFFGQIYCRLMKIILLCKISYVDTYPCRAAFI
Procedure: β1,3-N-Acetylglucosaminyltransferase activity of G6 polypeptide was measured by using glycolipids as substrates according to known methods [FEBS, 462, 289 (1999), J. Biol. Chem., 269, 14730-14737 (1994), J. Biol. Chem., 267, 23507 (1992), J. Biol. Chem., 267, 2994 (1992)]. Specifically, the reaction was carried out at 37° C. for 16 hours in 20 μl of reaction solution [150 mmol/l sodium cacodylate (pH 7.2), 10 mmol/l UDP-GlcNAc (manufactured by SIGMA), 480 μmol/l UDP—[^14C]GlcNAc (manufactured by Amersham), 0.4% Triton CF-54, 10 mmol/l MnCl2, 250 μmol/l glycolipid, the cell extract prepared in the above (1) (20 μg as protein)]. As glycolipids, lactosylceramide (manufactured by SIGMA) and paragloboside (obtained from Yasunori Kushi at Tokyo Medical and Dental University) were used. After completion of the reaction, 200 μl of 0.1 mol/l KCl was added and lightly centrifuged to obtain the supernatant. The supernatant was passed through Sep-Pak plus C18 Cartridge (Waters), which had been washed once with 10 ml of methanol and equilibrated twice with 10 ml of 0.1 mol/l KCl, to adsorb the glycolipid in the supernatant onto the cartridge. After washing the cartridge twice with 10 ml of pure water for HPLC, the adsorbed glycolipid was eluted with 5 ml of methanol. After concentrating the eluate to about 10 μl by using a vacuum dryer, the concentrated solution was spotted on a TLC plate (HPTLC plate Silica gel 60: manufactured by MERCK) and developed using a developing solvent comprising a composition of chloroform:methanol:water (containing 0.2% CaCl2)=65:35:8. After the development was carried out to a position 5 mm from the upper end of the TLC plate, the plate was dried and then the radioactivity incorporated into the glycolipid was measured using Bio Image Analyzer BAS 2000 (manufactured by Fuji Photo Film).

[3] = molecular target: T2, G6sec2 (Homo sapiens, UniProt Q9BYG0); assay: β1,3-N-acetylglucosaminyltransferase activity using glycolipids as substrates (purified enzyme); assay type: biochemical; conditions: for conversion efficiency: purified G6sec2 10 μl, 37° C., 16 hours
T2 construct: made in house; host or cells: Sf21 insect cells infected with pVL1393-F2G6sec2-derived recombinant baculovirus
T2 sequence (Q9BYG0 39-378): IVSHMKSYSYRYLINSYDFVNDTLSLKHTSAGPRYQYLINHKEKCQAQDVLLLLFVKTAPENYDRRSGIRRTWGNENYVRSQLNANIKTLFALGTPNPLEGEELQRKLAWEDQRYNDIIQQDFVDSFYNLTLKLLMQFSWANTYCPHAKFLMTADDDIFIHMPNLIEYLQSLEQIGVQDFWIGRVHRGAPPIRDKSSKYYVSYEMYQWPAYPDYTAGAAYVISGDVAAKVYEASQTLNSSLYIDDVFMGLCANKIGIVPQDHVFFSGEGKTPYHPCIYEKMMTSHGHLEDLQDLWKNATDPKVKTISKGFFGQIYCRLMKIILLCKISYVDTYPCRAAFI
Procedure: Using glycolipids as the substrate, β1,3-N-acetylglucosaminyltransferase activity of the G6 polypeptide was measured according to known methods [FEBS, 462, 289 (1999), J. Biol. Chem., 269, 14730-14737 (1994), J. Biol. Chem., 267, 23507 (1992), J. Biol. Chem., 267, 2994 (1992)]. Specifically, the reaction was carried out at 37° C. for 16 hours in 20 μl of a reaction solution [150 mmol/l sodium cacodylate (pH 7.2), 10 mmol/l UDP-GlcNAc (manufactured by SIGMA), 480 μmol/l UDP—[^14C]GlcNAc (manufactured by Amersham), 0.4% Triton CF-54, 10 mmol/l MnCl2, […] glycolipid, purified enzyme (G6sec2)]. As the purified enzyme (G6sec2), 10 μl of the enzyme obtained in the above (2) was used. As glycolipids, lactosylceramide, paragloboside, galactosylceramide (Type I) and galactosylceramide (Type II) were used. Paragloboside was obtained from Yasunori Kushi at Tokyo Medical and Dental University. Other glycolipids were purchased from SIGMA. After completion of the reaction, 200 μl of 0.1 mol/l KCl was added and lightly centrifuged to obtain the supernatant. The supernatant was passed through Sep-Pak plus C18 Cartridge (manufactured by Waters) which had been washed once with 10 ml of methanol and equilibrated by washing twice with 10 ml of 0.1 mol/l KCl to adsorb the glycolipid in the supernatant onto the cartridge. After washing the cartridge twice with 10 ml of pure water for HPLC, the adsorbed glycolipid was eluted with 5 ml of methanol. After concentrating the eluate to about 10 μl using a vacuum dryer, the concentrated solution was plotted on a TLC plate (HPTLC plate Silica gel 60: manufactured by MERCK) and developed using a developing solvent comprising a composition of chloroform:methanol:water (containing 0.2% CaCl2)=65:35:8. After the development was carried out to a position 5 mm from the upper end of the TLC plate, the plate was dried and then the radioactivity incorporated into the glycolipid was measured using Bio Image Analyzer BAS 2000 (manufactured by Fuji Photo Film).

[4] = molecular target: T3, G6sec1 (Homo sapiens, UniProt Q9BYG0); assay: GlcNAc β1,3-galactosyltransferase activity measurement; assay type: biochemical; conditions: 2-aminobenzamide-labeled substrate 88 μmol/l; UDP-Gal; 37° C., 16 hours
T3 construct: made in house; host or cells: Sf21 insect cells infected with pVL1393-F2G6sec1-derived recombinant baculovirus
T3 sequence (Q9BYG0 36-378): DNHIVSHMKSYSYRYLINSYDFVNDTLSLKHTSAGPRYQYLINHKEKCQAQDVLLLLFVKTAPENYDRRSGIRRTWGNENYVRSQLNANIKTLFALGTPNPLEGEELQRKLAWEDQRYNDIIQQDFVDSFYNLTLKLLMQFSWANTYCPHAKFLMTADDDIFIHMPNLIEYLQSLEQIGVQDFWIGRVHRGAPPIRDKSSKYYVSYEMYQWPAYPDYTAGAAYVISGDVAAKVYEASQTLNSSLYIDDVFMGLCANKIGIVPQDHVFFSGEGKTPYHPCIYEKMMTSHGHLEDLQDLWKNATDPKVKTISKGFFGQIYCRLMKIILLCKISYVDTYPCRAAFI
Procedure: (§1) The β1,3-galactosyltransferase activity measurement was carried out according to a conventional method [J. Biol. Chem., 274, 12499-12507 (1999)]. The reaction was carried out at 37° C. for 16 hours in 20 μl of an assay solution [14 mmol/l HEPES (pH 7.4), 75 μmol/l UDP-Gal (manufactured by SIGMA), 11 mmol/l MnCl2, 88 μmol/l sugar chain substrate, the above purified enzyme]. The amount of the enzyme used was the same as the amount used in the measurement of β1,3-N-acetylglucosaminyltransferase. As a substrate, 2-aminobenzamide-labeled GlcNAcβ1-3Galβ1-4GlcNAcβ1-3Galβ1-4GlcNAc (hereinafter referred to as “GlcNAc-2LN”) was used. The sugar chain was prepared by treating 2-aminobenzamide-labeled LN3 with β-galactosidase and thereby removing the terminal galactose residue. Specifically, 100 milli-units of β-galactosidase (manufactured by Seikagaku Corporation) were added to about 60 nmol of 2-aminobenzamide-labeled LN3, the reaction was carried out at 37° C. for 16 hours, and the sugar chain was prepared by inactivating β-galactosidase through its heat treatment at 100° C. for 5 minutes.

[5] = molecular target: T2, G6sec2; assay: as above; assay type: biochemical; conditions: 2-aminobenzamide-labeled substrate 88 μmol/l; UDP-Gal; 37° C., 16 hours
Procedure: as §1

[6] = molecular target: T2, G6sec2; assay: β1,3-N-acetylglucosaminyltransferase activity using unlabeled oligosaccharides as substrates (HPAE/PAD); assay type: biochemical
Procedure: The glycosyltransferase reaction was carried out as follows. The reaction was carried out at 37° C. for 16 hours in 40 μl of an assay solution [50 mmol/l MOPS (pH 7.5), 5 mmol/l UDP-GlcNAc (manufactured by SIGMA), 5 mmol/l MnCl2, 10 mmol/l sugar chain substrate, a purified enzyme solution (G6sec2)]. Next, the mixture was treated at 100° C. for 5 minutes and then centrifuged at 10,000×g for 20 minutes to obtain a supernatant, and a part thereof was analyzed using HPAE/PAD ([…]; manufactured by DIONEX). The method was specifically carried out according to a conventional method [Anal. Biochem., 189, 151-162 (1990), J. Biol. Chem., 273, 433-440 (1998)].
As a purified enzyme (G6sec2), […] of the enzyme obtained in the above (2) was used. As substrates, unlabeled oligosaccharides [lactose (Galβ1-4Glc) and LNnT] were used.
After the reaction on each substrate using an assay solution containing UDP-GlcNAc (saccharide donor) and an assay solution containing no donor, analysis was carried out using HPAE/PAD and peaks appeared only in the assay solution containing UDP-GlcNAc were defined as products. The product was identified using coincidence of its elution time with that of standard sugar chain as the index. As standard sugar chains, GlcNAcβ1-3Galβ1,4Glc and GlcNAcβ1-3Galβ1,4GlcNAcβ1-3Galβ1-4Glc were used.

Molecule: O[C@H]1[C@H]2[C@H](O)CCCN2C[C@H]1O [swainsonine]
reactivity to OSK28 antibody ([1]; 10 μg/ml): reduced

Molecule: GlcNAcβ1-3Galβ1-4GlcNAcβ1-3Galβ1-4GlcNAc [GlcNAc-2LN]
GlcNAc β1,3-galactosyltransferase activity [4]: did not show
GlcNAc β1,3-galactosyltransferase activity [5]: did not show

Molecule: CC(=O)N[C@H]1[C@@H](OCc2ccccc2)O[C@H](CO)[C@H](O)[C@@H]1O [benzyl-α-GalNAc]
reactivity to OSK28 antibody in comparison with absence of inhibitor ([1]; 4 mmol/l): sharply reduced

Now from value to molecule:

conversion efficiency into the product [2]: 0.126%
activity relative to lactosylceramide as substrate defined as 100% ([2]; glycolipid substrates): 96%
conversion efficiency ([3]; glycolipid substrate): 25.2%
activity relative to lactosylceramide as substrate defined as 100% ([3]; glycolipid substrates, purified G6sec2): 468%
Molecule: paragloboside

conversion efficiency into the product [2]: 0.125%
conversion efficiency ([3]; glycolipid substrate): 5.39%
Molecule: lactosylceramide

conversion efficiency into the product ([6]; unlabeled oligosaccharide 10 mmol/l, 37° C., 16 hours): 0.30%
relative activity, LNnT as substrate defined as 100% ([6]; unlabeled oligosaccharides): 62.5%
Molecule: OC[C@H]1O[C@@H](O[C@H]2[C@H](O)[C@@H](O)C(O)O[C@@H]2CO)[C@H](O)[C@@H](O)[C@H]1O (stereo partly shown) [lactose]

β1,3-N-acetylglucosaminyltransferase activity for the glycolipid ([3]; glycolipid substrate, purified G6sec2): did not show activity
Molecule: galactosylceramide (Type I)
